Source: patent publication US20030143228A1, “Human telomerase reverse transcriptase as a class-II restricted tumor-associated antigen” (Baylor College of Medicine, priority 2001, published 2003)
Ends that are not written are not given here. code X = not defined here

Test system: HLA-DR4 transgenic mice
Experiment: hTRT766 immunization of HLA-DR4 transgenic mice, IFN-γ ELISPOT of splenocytes
Assay type: in vivo
Protocol: IFN-γ ELISPOT assay was used to analyze peptide-specific T cell responses by determining the frequency of Th precursors specific for the peptide. Mice were sacrificed […] after the last immunization and splenocytes were obtained for assessing IFN-γ production.
Briefly, 96-well MultiScreen-IP plates (Millipore Corporation, Bedford, Mass.) were coated with 100 ul/well capture mAb against mouse IFN-γ (AN-18, Mabtech Inc, Cincinnati, Ohio) at a concentration of 10 μg/ml and incubated overnight at 4° C. The plates were washed 4 times with PBS, then blocked with RPMI 1640 plus 10% FBS for 2 hours at 37° C. After washing, freshly isolated splenocytes were plated at 2×10^5cells/well in RPMI 1640 with 10% FBS, in the presence or absence of peptide hTRT766 (20 μg/ml), recombinant hTRT proteins (20 μg/ml) or hTRT-positive NA-6-Mel (ATCC) tumor lysates (50 ul/well). Tumor cell lysates were prepared by three freeze-thaw cycles of 5×10^7 tumor cells resuspended in 5 ml of RPMI 1640 with 10% FBS. Then the cells were centrifuged at 15,000 g for 30 minutes at 4° C. Supernatant was recovered, aliquoted and stored at −80° C. for later use, as described previously [Schroers, 2002 #116]. After 20 hours of cell culture in the incubator, the cells were removed by washing 3 times with PBS and 4 times with PBS/Tween20 (0.05%). Biotinylated anti-mouse IFN-γ antibody (R4-6A2, Mabtech Inc, Cincinnati, Ohio), diluted to 1 μg/ml in PBS/Tween20 containing 0.5% bovine serum albumin, was added and incubated for 2 hours at 37° C. The plates were then washed 6 times with PBS/Tween20 (0.05%) and subsequently avidin-peroxidase-complex (Vector Laboratories, Burlingame, Calif.) was added and incubated for 1 hour at room temperature, and removed by washing 3 times with PBS and PBS/Tween20 (0.05%). The color of the plates was developed by adding HRP substrate 3-amino-9-ethylcarbozole (Sigma, St. Louis, Mo.). The plates were then washed with tap water, and air dried in dark. The plates were evaluated using an automated ELISPOT reader (Zellnet Consulting Inc, New York, N.Y.).
To further assess the therapeutic potential of hTRT766, HLA-DR4 transgenic mice (Congia, 1998; Sonderstrup, 1998; Sonderstrup, 1999) were used to determine whether immunization with the peptide induces a CD4+ Th response specific not only for the peptide, but also for the hTRT protein.
Briefly, human HLA DR4 transgenic mice (HLA-DRB1*0401), which are murine class II-deficient and transduced with human CD4 molecule, were generated. [Congia, 1998; Sonderstrup, 1998; Sonderstrup, 1999). The transgenic mice were successfully used to identify human class-II-restricted epitopes and to study immune responses (Congia, 1998; Sonderstrup, 1998; Sonderstrup, 1999; Geluk, 1998). HLA DR4 expression on the transgenic mice was analyzed by flow cytometry. Male DR4 transgenic mice 6- to 10-week-old were used for experiment. The transgenic mice were immunized twice at one week interval with 100 μg of hTRT766 peptide emulsified in complete Freunds adjuvant (CFA) (final volume, 100 μl) and administered subcutaneously (s.c.) into the rear back. Control group mice were injected with phosphate-buffered saline (PBS) emulsified in CFA.
The spleen cells were isolated and stained with FITC-conjugated mouse anti-human HLA-DR, PE-conjugated mouse anti-human CD4 or FITC-conjugated rat anti-mouse CD4 (BD PharMingen, San Diego, Calif.). Flow cytometric analysis determined that these transgenic mice were human HLA-DR, CD4 positive and mouse CD4 negative. Ten days after the last immunization, the transgenic mice were sacrificed and the responses of their splenocytes to peptides, recombinant hTRT protein and hTRT-positive tumor cell were examined by using IFN-γ ELISPOT assays. The splenocytes of hTRT766-immunized mice responded strongly to the hTRT766 stimulation, producing IFN-γ at a frequency of 72 spots per million of splenocytes (medium control, 10/106). […]

XLTDLQPYMRQFVAHL ({code X}-LTDLQPYMRQFVAHL; not fully specified; reading uncertain) [hTRT766]
response of splenocytes of immunized mice to irrelevant peptide hTRT854 (100 μg peptide in CFA s.c. twice, IFN-γ ELISPOT): did not respond | IFN-γ ELISPOT frequency of splenocytes of immunized mice (100 μg peptide in CFA s.c. twice, restimulated with hTRT766 peptide 20 μg/ml): 72 spots per million of splenocytes | IFN-γ ELISPOT frequency of splenocytes of immunized mice (restimulated with recombinant hTRT protein 20 μg/ml): 41 spots per million cells | IFN-γ ELISPOT frequency of splenocytes of immunized mice (stimulated with hTRT-negative GM847 tumor lysates, background frequency): 10/106 | IFN-γ ELISPOT frequency of splenocytes of immunized mice (stimulated with hTRT-positive NA-6-Mel cell lysates): 38 spots per million cells | IFN-γ ELISPOT frequency of splenocytes of immunized mice (stimulated with irrelevant CEA-Fc proteins, background frequency): 10/106
